This is an account of results in ChEMBL document CHEMBL1158598, “5-ureidobenzofuranone indoles as potent and efficacious inhibitors of PI3 kinase-alpha and mTOR for the treatment of breast cancer” (Bioorg Med Chem Lett, 2010).

For data set [1], the system named is MDA-MB-361. In words: Cytotoxicity against human MDA-MB-361 cells. The format is functional, cell-based.
Data set [2] deals with Serine/threonine-protein kinase mTOR (Homo sapiens, UniProt P42345). The data set is described as follows: Inhibition of mTOR.
Data set [3] in a line: Cytotoxicity against human PC3MM2 cells. The format is functional, cell-based.
Data set [4] concerns the target Phosphatidylinositol 4,5-bisphosphate 3-kinase catalytic subunit alpha isoform (Homo sapiens, UniProt P42336). The data set is described as follows: Inhibition of PI3Kalpha.
Data set [5] deals with Phosphatidylinositol 4,5-bisphosphate 3-kinase catalytic subunit beta isoform (Homo sapiens, UniProt P42338). In words: Inhibition of PI3Kbeta.
Data set [6] is described as follows: Solubility at pH 7.4. The note with it: buffer. Format: physicochemical.
The subject of data set [7] is Phosphatidylinositol 4,5-bisphosphate 3-kinase catalytic subunit alpha isoform (Homo sapiens), P42336 [H1047R]. The data set is described as follows: Inhibition of PI3Kalpha H1047R mutant.
Data set [8] has as its system Phosphatidylinositol 4,5-bisphosphate 3-kinase catalytic subunit alpha isoform (Homo sapiens), P42336 [E545K]. The data set is described as follows: Inhibition of PI3Kalpha E545K mutant.
Data set [9] in a line: Half life in human microsome. Format: ADME. The note with it: microsomes.
Data set [10] relates to Mus musculus. The data set is described as follows: Inhibition of AKT-P70S6K phosphorylation in nude mouse at 25 mg/kg, iv after 8 hrs. The format is functional, organism-based. The arrangement: dose 25 mg/kg.
Data set [11] is described as follows: Permeability from apical to basolateral side of the human Caco-2 membrane. The note with it: read-out: permeability. The format is ADME, cell-based.
Data set [12] deals with Mus musculus. In words: Inhibition of AKT-S473 phosphorylation in nude mouse at 25 mg/kg, iv after 8 hrs. The format is functional, organism-based. Further details: dose 25 mg/kg.
Data set [13] can be described thus: Half life in mouse microsome. Format: ADME. The note with it: microsomes.
In data set [14] the test system is Mus musculus. In words: Inhibition of AKT-T308 phosphorylation in nude mouse at 25 mg/kg, iv after 8 hrs. The format is functional, organism-based. Further details: dose 25 mg/kg.
Data set [15] concerns MDA-MB-361. In words: Antitumor activity against human MDA-MB-361 cells xenografted in mouse assessed as reduction in tumor size at 25 mg/kg, iv after 1 to 9 days. The format is functional, organism-based. Further details: dose 25 mg/kg. Background: Xenograft models place foreign cells or tissue in a host animal.
The nature of data set [16]: Half life in rat microsome. Format: ADME. The note with it: microsomes.
A short description of data set [17]: Permeability from basolateral to apical side of the human Caco-2 membrane. The format is ADME, cell-based. The note with it: read-out: permeability.
Data set [18] has as its system Mus musculus. In words: Inhibition of AKT-PS6 phosphorylation in nude mouse at 25 mg/kg, iv after 8 hrs. The format is functional, organism-based. Further details: dose 25 mg/kg.
The target in data set [19] is Phosphatidylinositol 4,5-bisphosphate 3-kinase catalytic subunit gamma isoform (Homo sapiens, UniProt P48736). The data set is described as follows: Inhibition of PI3gamma.
For data set [20], the target named is T1, Phosphatidylinositol 4,5-bisphosphate 3-kinase catalytic subunit delta isoform (Homo sapiens, UniProt O00329).
T1 sequence (O00329 whole entry): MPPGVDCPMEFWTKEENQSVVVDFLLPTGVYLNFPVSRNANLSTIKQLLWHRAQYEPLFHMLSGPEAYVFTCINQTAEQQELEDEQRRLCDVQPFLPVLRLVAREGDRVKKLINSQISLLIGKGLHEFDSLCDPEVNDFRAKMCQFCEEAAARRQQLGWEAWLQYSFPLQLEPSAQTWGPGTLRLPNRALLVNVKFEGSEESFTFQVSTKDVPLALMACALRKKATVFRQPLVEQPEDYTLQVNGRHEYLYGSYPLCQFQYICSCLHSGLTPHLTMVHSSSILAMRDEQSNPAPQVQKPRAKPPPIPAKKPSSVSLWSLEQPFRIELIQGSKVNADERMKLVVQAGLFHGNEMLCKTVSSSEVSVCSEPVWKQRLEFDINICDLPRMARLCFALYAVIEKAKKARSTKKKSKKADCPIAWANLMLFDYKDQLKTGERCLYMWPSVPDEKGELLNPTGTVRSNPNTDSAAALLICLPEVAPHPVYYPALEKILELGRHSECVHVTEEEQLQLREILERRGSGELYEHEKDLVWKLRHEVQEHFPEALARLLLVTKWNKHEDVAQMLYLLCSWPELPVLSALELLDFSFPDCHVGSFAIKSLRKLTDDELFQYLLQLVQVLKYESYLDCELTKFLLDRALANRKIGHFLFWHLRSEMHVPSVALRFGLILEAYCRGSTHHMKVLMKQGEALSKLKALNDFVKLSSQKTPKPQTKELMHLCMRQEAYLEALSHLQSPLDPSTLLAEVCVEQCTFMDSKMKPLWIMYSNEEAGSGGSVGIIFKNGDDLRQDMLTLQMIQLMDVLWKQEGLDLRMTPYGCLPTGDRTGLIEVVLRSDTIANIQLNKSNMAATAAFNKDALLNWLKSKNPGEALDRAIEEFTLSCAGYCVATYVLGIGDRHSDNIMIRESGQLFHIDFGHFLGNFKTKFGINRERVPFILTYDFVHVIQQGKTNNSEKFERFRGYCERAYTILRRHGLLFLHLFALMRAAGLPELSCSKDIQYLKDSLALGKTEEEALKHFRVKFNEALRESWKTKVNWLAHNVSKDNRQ
The data set is described as follows: Inhibition of PI3delta.

Each structure is given as a SMILES string. In brackets after ≈: the same amount, converted by molar mass. Activity calls are given as the source filed them. The calls are words filed in the database; no cut-off is given here.

Chain of Phosphatidylinositol 4,5-bisphosphate 3-kinase catalytic subunit alpha isoform (P42336 whole entry, canonical isoform): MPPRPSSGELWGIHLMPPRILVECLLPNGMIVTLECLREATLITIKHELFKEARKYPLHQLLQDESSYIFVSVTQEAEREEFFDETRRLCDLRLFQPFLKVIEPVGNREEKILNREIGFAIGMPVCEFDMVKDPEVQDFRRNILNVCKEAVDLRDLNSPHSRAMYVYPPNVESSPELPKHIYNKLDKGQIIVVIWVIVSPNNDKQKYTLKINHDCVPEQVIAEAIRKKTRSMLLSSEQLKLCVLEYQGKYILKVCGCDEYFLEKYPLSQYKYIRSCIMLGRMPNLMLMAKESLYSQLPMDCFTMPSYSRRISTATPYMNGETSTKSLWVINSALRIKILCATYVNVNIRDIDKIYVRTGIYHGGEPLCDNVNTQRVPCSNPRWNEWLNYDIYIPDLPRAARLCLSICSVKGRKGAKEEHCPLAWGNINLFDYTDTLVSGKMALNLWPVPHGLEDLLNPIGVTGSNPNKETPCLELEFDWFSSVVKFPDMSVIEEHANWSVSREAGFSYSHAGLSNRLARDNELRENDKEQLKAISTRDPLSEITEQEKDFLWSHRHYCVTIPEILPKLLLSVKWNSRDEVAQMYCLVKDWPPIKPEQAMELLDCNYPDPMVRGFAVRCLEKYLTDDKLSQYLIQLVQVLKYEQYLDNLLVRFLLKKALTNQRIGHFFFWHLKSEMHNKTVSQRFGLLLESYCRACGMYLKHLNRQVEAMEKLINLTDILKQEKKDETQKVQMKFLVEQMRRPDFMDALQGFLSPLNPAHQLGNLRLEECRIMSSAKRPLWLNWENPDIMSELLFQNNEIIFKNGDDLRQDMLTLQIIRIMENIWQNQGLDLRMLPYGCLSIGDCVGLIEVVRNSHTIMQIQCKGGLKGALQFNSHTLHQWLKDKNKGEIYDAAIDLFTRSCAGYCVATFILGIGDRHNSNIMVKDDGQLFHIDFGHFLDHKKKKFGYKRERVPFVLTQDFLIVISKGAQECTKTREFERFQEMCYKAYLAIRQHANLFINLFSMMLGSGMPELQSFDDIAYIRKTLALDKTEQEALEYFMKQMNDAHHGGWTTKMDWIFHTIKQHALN
Chain of Phosphatidylinositol 4,5-bisphosphate 3-kinase catalytic subunit alpha isoform (Homo sapiens), P42336 [E545K] (P42336 whole entry E545K, canonical isoform): as the sequence (P42336 whole entry, canonical isoform) above, with E545K counted along it
Chain of Phosphatidylinositol 4,5-bisphosphate 3-kinase catalytic subunit gamma isoform (P48736 whole entry, canonical isoform): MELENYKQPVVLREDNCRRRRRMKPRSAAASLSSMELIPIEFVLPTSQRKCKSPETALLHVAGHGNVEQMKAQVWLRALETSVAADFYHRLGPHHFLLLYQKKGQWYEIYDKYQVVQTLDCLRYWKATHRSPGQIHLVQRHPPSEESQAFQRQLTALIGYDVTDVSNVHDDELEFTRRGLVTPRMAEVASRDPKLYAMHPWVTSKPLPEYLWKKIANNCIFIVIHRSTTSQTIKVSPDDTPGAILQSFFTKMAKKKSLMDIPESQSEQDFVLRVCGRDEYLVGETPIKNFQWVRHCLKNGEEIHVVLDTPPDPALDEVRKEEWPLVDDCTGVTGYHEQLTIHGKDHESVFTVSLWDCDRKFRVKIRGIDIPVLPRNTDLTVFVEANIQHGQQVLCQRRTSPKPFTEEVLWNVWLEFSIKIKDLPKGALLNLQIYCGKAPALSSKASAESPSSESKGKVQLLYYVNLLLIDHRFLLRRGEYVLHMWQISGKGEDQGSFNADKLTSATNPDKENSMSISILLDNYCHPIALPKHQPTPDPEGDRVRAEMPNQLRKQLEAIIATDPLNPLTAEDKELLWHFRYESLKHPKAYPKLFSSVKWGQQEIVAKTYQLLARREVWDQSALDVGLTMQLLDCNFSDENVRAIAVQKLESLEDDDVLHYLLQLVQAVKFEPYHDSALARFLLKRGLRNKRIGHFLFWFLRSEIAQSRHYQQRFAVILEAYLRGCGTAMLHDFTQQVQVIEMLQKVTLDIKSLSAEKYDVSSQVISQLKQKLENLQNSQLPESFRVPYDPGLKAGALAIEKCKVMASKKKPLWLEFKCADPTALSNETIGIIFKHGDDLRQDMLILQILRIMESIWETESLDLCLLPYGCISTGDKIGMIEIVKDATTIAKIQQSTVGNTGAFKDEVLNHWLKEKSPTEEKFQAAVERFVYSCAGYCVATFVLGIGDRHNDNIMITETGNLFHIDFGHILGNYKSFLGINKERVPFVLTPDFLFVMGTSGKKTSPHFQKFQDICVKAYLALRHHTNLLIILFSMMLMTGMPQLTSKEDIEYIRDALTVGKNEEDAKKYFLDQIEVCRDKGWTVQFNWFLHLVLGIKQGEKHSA
Chain of Phosphatidylinositol 4,5-bisphosphate 3-kinase catalytic subunit beta isoform (P42338 whole entry, canonical isoform): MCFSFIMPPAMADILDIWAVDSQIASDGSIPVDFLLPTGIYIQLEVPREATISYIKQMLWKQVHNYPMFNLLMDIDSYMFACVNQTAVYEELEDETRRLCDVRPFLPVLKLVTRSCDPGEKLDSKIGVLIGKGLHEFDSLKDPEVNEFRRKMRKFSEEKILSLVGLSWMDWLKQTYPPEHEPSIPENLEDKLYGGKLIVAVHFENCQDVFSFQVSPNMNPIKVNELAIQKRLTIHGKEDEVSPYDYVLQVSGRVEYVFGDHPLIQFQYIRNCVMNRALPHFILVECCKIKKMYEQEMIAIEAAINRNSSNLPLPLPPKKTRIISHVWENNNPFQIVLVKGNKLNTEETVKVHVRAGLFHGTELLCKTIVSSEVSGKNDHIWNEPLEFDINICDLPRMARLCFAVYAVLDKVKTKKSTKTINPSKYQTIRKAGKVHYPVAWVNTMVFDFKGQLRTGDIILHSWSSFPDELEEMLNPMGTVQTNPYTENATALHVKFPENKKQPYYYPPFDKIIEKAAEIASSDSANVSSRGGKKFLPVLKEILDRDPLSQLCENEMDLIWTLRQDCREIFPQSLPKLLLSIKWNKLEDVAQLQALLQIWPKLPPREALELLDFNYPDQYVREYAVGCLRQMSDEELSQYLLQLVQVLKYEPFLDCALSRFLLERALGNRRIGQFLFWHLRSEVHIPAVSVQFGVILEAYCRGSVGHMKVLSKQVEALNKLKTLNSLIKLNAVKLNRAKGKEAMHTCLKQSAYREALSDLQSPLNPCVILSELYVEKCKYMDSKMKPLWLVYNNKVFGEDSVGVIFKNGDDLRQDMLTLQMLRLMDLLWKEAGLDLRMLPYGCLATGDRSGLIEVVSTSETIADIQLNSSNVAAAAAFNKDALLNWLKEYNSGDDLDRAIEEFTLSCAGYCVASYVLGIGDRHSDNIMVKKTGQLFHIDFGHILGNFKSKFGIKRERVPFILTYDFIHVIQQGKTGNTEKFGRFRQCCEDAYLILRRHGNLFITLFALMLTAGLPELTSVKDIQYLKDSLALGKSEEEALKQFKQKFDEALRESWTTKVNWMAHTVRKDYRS
Chain of Phosphatidylinositol 4,5-bisphosphate 3-kinase catalytic subunit alpha isoform (Homo sapiens), P42336 [H1047R] (P42336 whole entry H1047R, canonical isoform): as the sequence (P42336 whole entry, canonical isoform) above, with H1047R counted along it

For `COc1ccc2[nH]c(-c3c(C)nn(C)c3C)c(/C=C3/Oc4ccc(NC(=O)Nc5ccc(C(=O)N6CCOCC6)cc5)cc4C3=O)c2c1`, the IC50 (commonly the concentration that inhibits the measured activity by half) in [1] is 6 nM; in data set [2] it was 4.2 nM; in data set [3] it was 94 nM; in [4], 0.2 nM.

In the case of `COc1ccc2[nH]c(-c3c(C)nn(C)c3C)c(/C=C3/Oc4ccc(NC(=O)Nc5cccnc5)cc4C3=O)c2c1`, the half-maximal inhibitory concentration (IC50) in data set [1] was 76 nM; in data set [2] it was 5.2 nM; in [3], > 10000 nM; in data set [4] it was 0.5 nM.

Take `CNC(=O)Nc1ccc2c(c1)C(=O)/C(=C\c1c(-c3c(C)nn(C)c3C)[nH]c3c(F)cc(OC)cc13)O2`: the half-inhibitory concentration (IC50) in data set [1] amounted to 20 nM; in data set [2], 2.4 nM; in data set [3], 62 nM; in data set [4], 0.4 nM.

For the compound `COc1cc(F)c2[nH]c(-c3c(C)nn(C)c3C)c(/C=C3/Oc4ccc(NC(=O)Nc5cccnc5)cc4C3=O)c2c1`, the half-inhibitory concentration (IC50) is 39 nM in data set [1], 1.5 nM in data set [2], > 1000 nM in [3] and 1 nM in [4].

On to `COc1ccc2[nH]c(-c3c(C)nn(C)c3C)c(/C=C3/Oc4ccc(NC(=O)Nc5ccc(C(=O)N6CCN(C)CC6)cc5)cc4C3=O)c2c1`, for which the half-maximal inhibitory concentration (IC50) in data set [1] is 8 nM; in [2], 3.8 nM; in [3] it was 131 nM; in data set [4], 0.2 nM.

For `CNC(=O)Nc1ccc2c(c1)C(=O)/C(=C\c1c(-c3c(C)nn(C)c3C)[nH]c3ccc(OC)cc13)O2`, the IC50 in data set [1] stood at 36 nM; in [2], 1.3 nM; in data set [3], 130 nM; in data set [4], 0.4 nM.

With `COc1ccc2[nH]c(-c3c(C)nn(C)c3C)c(/C=C3/Oc4ccc(NC(=O)Nc5ccc(C(=O)N(C)CCN(C)C)cc5)cc4C3=O)c2c1`, the 50% inhibitory concentration (IC50) in [1] was < 3 nM; in data set [2], 1.1 nM; in data set [3], 23 nM; in [4] it was 0.3 nM.

For `COc1ccc2[nH]cc(/C=C3/Oc4ccc(NC(=O)Nc5ccc(C(=O)N6CCN(C)CC6)cc5)cc4C3=O)c2c1`, the 50% inhibitory concentration (IC50) in data set [1] is > 1000 nM; in data set [2], > 4000 nM; in data set [3], > 1000 nM; in [4], 0.9 nM.

With `COc1cc(F)c2[nH]c(-c3c(C)nn(C)c3C)c(/C=C3/Oc4ccc(NC(=O)Nc5ccc(C(=O)N6CCOCC6)cc5)cc4C3=O)c2c1`, the IC50 turned out to be 6 nM in [1], 2.5 nM in [2], 57 nM in data set [3] and 0.5 nM in [4].

With `COc1cc(F)c2[nH]c(-c3c(C)nn(C)c3C)c(/C=C3/Oc4ccc(NC(=O)Nc5ccc(C(=O)N(C)CCN(C)C)cc5)cc4C3=O)c2c1`, the IC50 in data set [5] was 0.7 nM; in data set [1], < 3 nM; in data set [8] it was 0.3 nM; in data set [2] it was 0.3 nM; in data set [3] it was 10 nM; in data set [19], 2.4 nM. Moreover, the IC50 was determined as 0.6 nM in data set [20] and 0.2 nM in data set [4]. In addition, the concentration in solution in data set [6] (solubility) came to 1 µg/mL (≈ 1.47 µM). Besides, the INH in [7] was determined as 0.5 nM. The half-life in data set [9], in data set [13] and in [16] was > 30 min throughout. Further, the inhibition entry in data set [10], in data set [12], in [14] and in data set [18] was “Active” throughout. Also, the Papp A→B in [11] stood at 3 nm/s. The result in data set [15] was Active. Moreover, in data set [17], the Papp B→A worked out at 3 nm/s.
